One test concerns the target full-length human RORγt (Homo sapiens (Human), UniProt P51449). Description: RORγt (full-length human) reporter assay, conditions A or B, HEK293T cells. The test is classed as cell-based. The note with it: for inhibition at 3 µM: 3 μM compound concentration (footnote *); for pIC50: RORγt (FL) Reporter Assay A or B, IC50, HEK293T cells; for inhibition at 2 µM: 2 μM compound concentration; for inhibition at 6 µM: read-out: RORγt (FL) Reporter Assay A or B, % inhibition @ 6 μM. The method, boiled down:
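Dual-luciferase read-out was taken after an overnight (16–20 h) compound exposure. Firefly data were scaled between DMSO-only and saturating reference compound, Renilla-normalized, then plotted against concentration for IC50.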
In general terms: Reporter assays use an easily measured gene product as a stand-in for the process of interest.

Test [1] addresses human RORγt ligand binding domain (RORγt LBD) (Homo sapiens (Human), UniProt P51449). The test can be described thus: RORγt ThermoFluor® assay (thermal shift binding). Summed up: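 Thermal shift with 0.065 mg/mL RORγt LBD and 60 μM 1,8-ANS in 100 mM Hepes pH 7.0, 10 mM NaCl, 2.5 mM GSH, 0.002% Tween-20.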
The mark [2] stands for this setting: HEK-293T, read-out: RORγt (FL) Reporter Assay A or B, % inhibition.
The mark [3] stands for this setting: read-out: ThermoFluor® Assay, Kd.
Setting [4] is: HEK-293T, 6 μM compound concentration.

pIC50, pKd: −log10 of the molar value. Like-named read-outs stand apart in the source and are kept apart here. A value given as a limit tells only on which side of the number the result lay.

full-length human RORγt, sequence (P51449 other isoform, or with tags, fused parts or gaps): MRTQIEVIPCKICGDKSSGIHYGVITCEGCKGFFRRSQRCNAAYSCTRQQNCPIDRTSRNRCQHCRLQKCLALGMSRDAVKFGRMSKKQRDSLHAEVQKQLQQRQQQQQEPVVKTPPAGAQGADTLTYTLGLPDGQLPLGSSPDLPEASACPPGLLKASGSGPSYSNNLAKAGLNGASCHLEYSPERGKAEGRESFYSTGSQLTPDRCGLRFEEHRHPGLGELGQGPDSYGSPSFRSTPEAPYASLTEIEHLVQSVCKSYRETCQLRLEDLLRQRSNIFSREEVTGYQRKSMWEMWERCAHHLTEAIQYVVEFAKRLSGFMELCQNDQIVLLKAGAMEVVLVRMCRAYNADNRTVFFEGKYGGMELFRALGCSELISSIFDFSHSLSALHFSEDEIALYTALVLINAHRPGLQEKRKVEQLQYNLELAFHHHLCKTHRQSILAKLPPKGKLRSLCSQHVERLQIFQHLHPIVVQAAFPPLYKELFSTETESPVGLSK
human RORγt ligand binding domain (RORγt LBD), sequence (P51449 other isoform, or with tags, fused parts or gaps): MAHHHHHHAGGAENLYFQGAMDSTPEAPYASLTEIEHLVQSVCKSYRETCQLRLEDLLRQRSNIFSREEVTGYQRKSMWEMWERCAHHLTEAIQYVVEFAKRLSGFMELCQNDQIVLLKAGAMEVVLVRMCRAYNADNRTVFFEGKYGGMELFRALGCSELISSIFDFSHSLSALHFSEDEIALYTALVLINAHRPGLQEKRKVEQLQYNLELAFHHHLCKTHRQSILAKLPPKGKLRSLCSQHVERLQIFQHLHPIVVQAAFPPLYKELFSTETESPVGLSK

As for `CCn1nc(C(=O)NC[C@]2(O)CC[C@@H](S(C)(=O)=O)C[C@H]2O)c(C)c1-c1ccc(C[C@@H](C)C(F)(F)F)cc1OC(F)F` (stereo in doubt) [Example 140, 5-(2-(Difluoromethoxy)-4-((R*)-3,3,3-trifluoro-2-methylpropyl)phenyl)-N-(((1R*,2R*,4R*)-1,2-dihydroxy-4-(methylsulfonyl)cyclohexyl)methyl)-1-ethyl-4-methyl-1H-pyrazole-3-carboxamide], the inhibition at 3 µM at full-length human RORγt (setting [2]) is 109%. Moreover, the pIC50 at full-length human RORγt was 7.82. Moreover, the pKd in test [1] (ThermoFluor® Assay, Kd) was 8.62.

As to `CCn1nc(C(=O)NC[C@@]2(O)CC[C@H](S(C)(=O)=O)C[C@@H]2O)c(C)c1-c1ccc(C[C@@H](C)C(F)(F)F)cc1OC(F)F` (stereo in doubt) [Example 141, 5-(2-(Difluoromethoxy)-4-((R*)-3,3,3-trifluoro-2-methylpropyl)phenyl)-N-(((1S*,2S*,4S*)-1,2-dihydroxy-4-(methylsulfonyl)cyclohexyl)methyl)-1-ethyl-4-methyl-1H-pyrazole-3-carboxamide], the inhibition at 3 µM on full-length human RORγt (setting [2]) was found to be 84%. For the same compound, the pIC50 against full-length human RORγt is 7.07. For the same compound, the negative-log Kd (pKd) in test [1] (ThermoFluor® Assay, Kd) is 8.24.

Take `Cn1nc(C(=O)NC[C@@]2(O)CC[C@H](S(C)(=O)=O)C[C@@H]2O)c(Cl)c1-c1ccc(CCCC(F)(F)F)cc1OC(F)F` (stereo in doubt) [Example 159, 4-Chloro-5-(2-(difluoromethoxy)-4-(4,4,4-trifluorobutyl)phenyl)-N-(((1S*,2S*,4S*)-1,2-dihydroxy-4-(methylsulfonyl)cyclohexyl)methyl)-1-methyl-1H-pyrazole-3-carboxamide]: the inhibition at 3 µM at full-length human RORγt (setting [2]) was found to be 73%. Besides, the pIC50 on full-length human RORγt is 7.41. In addition, the pKd in test [1] (ThermoFluor® Assay, Kd) was 7.39.

As to `Cn1nc(C(=O)NC[C@]2(O)CC[C@@H](S(C)(=O)=O)C[C@H]2O)c(Cl)c1-c1ccc(CCCC(F)(F)F)cc1OC(F)F` (stereo in doubt) [Example 160, 4-Chloro-5-(2-(difluoromethoxy)-4-(4,4,4-trifluorobutyl)phenyl)-N-(((1R*,2R*,4R*)-1,2-dihydroxy-4-(methylsulfonyl)cyclohexyl)methyl)-1-methyl-1H-pyrazole-3-carboxamide], the inhibition at 3 µM on full-length human RORγt (setting [2]) was found to be 96%. Also, the pIC50 at full-length human RORγt is 7.57. In test [1] (ThermoFluor® Assay, Kd), the pKd was 7.41.

Consider `CCn1nc(C(=O)NC[C@H]2CC[C@H](S(C)(=O)=O)CC2)c(Cl)c1-c1ccc(CC(C)(C)C(F)(F)F)cc1OC(F)F` [Example 2, 4-Chloro-5-(2-(difluoromethoxy)-4-(3,3,3-trifluoro-2,2-dimethylpropyl)phenyl)-1-ethyl-N-(((1r,4r)-4-(methylsulfonyl)cyclohexyl)methyl)-1H-pyrazole-3-carboxamide], for which, on full-length human RORγt (HEK-293T, 0.22 μM compound concentration (footnote *******), read-out: RORγt (FL) Reporter Assay A or B, % inhibition), the inhibition at […] amounted to 94%. Besides, the pIC50 on full-length human RORγt was 8.36. Besides, the pKd in test [1] (setting [3]) is 9.80.

For `CCn1nc(C(=O)NC[C@]2(O)CC[C@@H](S(C)(=O)=O)CC2)c(Cl)c1-c1ccc(N[C@H](C)C(F)(F)F)cc1OC` [Example 24, 4-Chloro-1-ethyl-N-(((1s,4S)-1-hydroxy-4-(methylsulfonyl)cyclohexyl)methyl)-5-(2-methoxy-4-(((R)-1,1,1-trifluoropropan-2-yl)amino)phenyl)-1H-pyrazole-3-carboxamide], at full-length human RORγt (setting [2]), the inhibition at 2 µM worked out at 104%. Also, the negative-log IC50 (pIC50) against full-length human RORγt was 7.28. In test [1] (setting [3]), the negative-log Kd (pKd) was 7.68.

Turning to `CCn1nc(C(=O)NC[C@H]2CC[C@H](S(C)(=O)=O)CC2)c(Cl)c1-c1ccc(NCC(F)(F)F)cc1OC` [Example 25, 4-Chloro-1-ethyl-5-(2-methoxy-4-((2,2,2-trifluoroethyl)amino)phenyl)-N-(((1r,4r)-4-(methylsulfonyl)cyclohexyl)methyl)-1H-pyrazole-3-carboxamide], the inhibition at 6 µM at full-length human RORγt (setting [4]) was determined as 105%. Further, the negative-log IC50 (pIC50) on full-length human RORγt is 6.92. Also, in test [1] (setting [3]), the pKd was 7.51.

For the compound `COc1cc(N[C@H](C)C(F)(F)F)ccc1-c1c(Cl)c(C(=O)NC[C@H]2CC[C@H](S(C)(=O)=O)CC2)nn1C(C)(C)C` [Example 26, 1-(tert-Butyl)-4-chloro-5-(2-methoxy-4-(((R)-1,1,1-trifluoropropan-2-yl)amino)phenyl)-N-(((1r,4R)-4-(methylsulfonyl)cyclohexyl)methyl)-1H-pyrazole-3-carboxamide], at full-length human RORγt (setting [4]), the inhibition at 6 µM amounted to 108%. On full-length human RORγt, this compound showed a pIC50 of 7.54. Also, in test [1] (setting [3]), the pKd is 8.41.

`COc1cc(N[C@H](C)C(F)(F)F)ccc1-c1c(Cl)c(C(=O)NC[C@]2(O)CC[C@@H](S(C)(=O)=O)CC2)nn1C(C)(C)C` [Example 27, 1-(tert-Butyl)-4-chloro-N-(((1s,4S)-1-hydroxy-4-(methylsulfonyl)cyclohexyl)methyl)-5-(2-methoxy-4-(((R)-1,1,1-trifluoropropan-2-yl)amino)phenyl)-1H-pyrazole-3-carboxamide]: the inhibition at 6 µM on full-length human RORγt (setting [4]) worked out at 105%. At full-length human RORγt, this compound gave a negative logarithm of the IC50 (pIC50) of 7.22. Moreover, in test [1] (setting [3]), the negative logarithm of the Kd (pKd) is 8.13.

For the compound `COc1cc(N[C@H](C)C(F)(F)F)ccc1-c1c(Cl)c(C(=O)NC[C@H]2CC[C@H](S(C)(=O)=O)CC2)nn1CC(C)C` [Example 28, 4-Chloro-1-isobutyl-5-(2-methoxy-4-(((R)-1,1,1-trifluoropropan-2-yl)amino)phenyl)-N-(((1r,4R)-4-(methylsulfonyl)cyclohexyl)methyl)-1H-pyrazole-3-carboxamide], the inhibition at 2 µM on full-length human RORγt (setting [2]) amounted to 103%. Moreover, at full-length human RORγt, the pIC50 was 7.64. Besides, in test [1] (setting [3]), the pKd is 8.60.

In the case of `COc1cc(N[C@H](C)C(F)(F)F)ccc1-c1c(Cl)c(C(=O)NC[C@]2(O)CC[C@@H](S(C)(=O)=O)CC2)nn1CC(C)C` [Example 29, 4-Chloro-N-(((1s,4S)-1-hydroxy-4-(methylsulfonyl)cyclohexyl)methyl)-1-isobutyl-5-(2-methoxy-4-(((R)-1,1,1-trifluoropropan-2-yl)amino)phenyl)-1H-pyrazole-3-carboxamide], the inhibition at 6 µM on full-length human RORγt (HEK-293T) was 108%. This compound also showed a pIC50 against full-length human RORγt of 7.21. The pKd in test [1] (setting [3]) is 8.08.

As for `CCCn1nc(C(=O)NC[C@H]2CC[C@H](S(C)(=O)=O)CC2)c(Cl)c1-c1ccc(N[C@H](C)C(F)(F)F)cc1OC` [Example 30, 4-Chloro-5-(2-methoxy-4-(((R)-1,1,1-trifluoropropan-2-yl)amino)phenyl)-N-(((1r,4R)-4-(methylsulfonyl)cyclohexyl)methyl)-1-propyl-1H-pyrazole-3-carboxamide], the inhibition at 2 µM on full-length human RORγt (setting [2]) is 104%. Also, on full-length human RORγt, the pIC50 is 7.57. Besides, the pKd in test [1] (setting [3]) was 8.68.

Consider `CCCn1nc(C(=O)NC[C@]2(O)CC[C@@H](S(C)(=O)=O)CC2)c(Cl)c1-c1ccc(N[C@H](C)C(F)(F)F)cc1OC` [Example 31, 4-Chloro-N-(((1s,4S)-1-hydroxy-4-(methylsulfonyl)cyclohexyl)methyl)-5-(2-methoxy-4-(((R)-1,1,1-trifluoropropan-2-yl)amino)phenyl)-1-propyl-1H-pyrazole-3-carboxamide], for which the inhibition at 6 µM on full-length human RORγt (HEK-293T) came out at 105%. This compound also gave a negative-log IC50 (pIC50) against full-length human RORγt of 7.39. Further, the pKd in test [1] (setting [3]) was 8.14.

Regarding `CCn1nc(C(=O)NC[C@]2(C#N)CC[C@H](S(C)(=O)=O)CC2)c(Cl)c1-c1ccc(N[C@H](C)C(F)(F)F)cc1OC` [Example 33, 4-Chloro-N-(((1r,4R)-1-cyano-4-(methylsulfonyl)cyclohexyl)methyl)-1-ethyl-5-(2-methoxy-4-(((R)-1,1,1-trifluoropropan-2-yl)amino)phenyl)-1H-pyrazole-3-carboxamide], the inhibition at 6 µM on full-length human RORγt (setting [4]) came out at 88%. In addition, the pIC50 against full-length human RORγt is 5.96. In test [1] (setting [3]), the negative logarithm of the Kd (pKd) is 6.35.

As to `CCn1nc(C(=O)NC[C@]2(C(N)=O)CC[C@H](S(C)(=O)=O)CC2)c(Cl)c1-c1ccc(N[C@H](C)C(F)(F)F)cc1OC` [Example 34, N-(((1r,4R)-1-carbamoyl-4-(methylsulfonyl)cyclohexyl)methyl)-4-chloro-1-ethyl-5-(2-methoxy-4-(((R)-1,1,1-trifluoropropan-2-yl)amino)phenyl)-1H-pyrazole-3-carboxamide], the inhibition at 6 µM on full-length human RORγt (setting [4]) was determined as 6%. Also, the pIC50 on full-length human RORγt is less than 5.22. The pKd in test [1] (setting [3]) is 5.52.

As to `CCn1nc(C(=O)NC[C@]2(C(N)=O)CC[C@@H](S(C)(=O)=O)CC2)c(Cl)c1-c1ccc(N[C@H](C)C(F)(F)F)cc1OC` [Example 35, N-(((1s,4S)-1-carbamoyl-4-(methylsulfonyl)cyclohexyl)methyl)-4-chloro-1-ethyl-5-(2-methoxy-4-(((R)-1,1,1-trifluoropropan-2-yl)amino)phenyl)-1H-pyrazole-3-carboxamide], the inhibition at 6 µM on full-length human RORγt (setting [4]) turned out to be 102%. The pIC50 at full-length human RORγt is 6.14. The pKd in test [1] (setting [3]) is 7.47.

For the compound `CCn1nc(C(=O)NC[C@H]2CC[C@H](S(C)(=O)=O)CC2)c(Cl)c1-c1ccc(CCC(F)(F)F)cc1OC` [Example 38, 4-Chloro-1-ethyl-5-(2-methoxy-4-(3,3,3-trifluoropropyl)phenyl)-N-(((1r,4r)-4-(methylsulfonyl)cyclohexyl)methyl)-1H-pyrazole-3-carboxamide], at full-length human RORγt (setting [2]), the inhibition at 0.67 µM was 84%. Also, the pIC50 at full-length human RORγt was 7.92. The pKd in test [1] (setting [3]) was 8.48.

What is called inhibition is the change of the read-out against control, counted positive when it falls. What is called pIC50 is −log10 of the IC50, conventionally taken in molar units. A low value points to a large IC50. A word on the pKd: it is −log10 of the Kd, conventionally taken in molar units.

Source of the values: patent US10975037B2 (priority 2018, dated 2021).
